Where two headings read alike, the source gives them in different places.
Key:
[1] = cited from earlier work
[2] = system: CYP3A4; assay: CYP3A4 enzyme induction assay in cryopreserved primary human hepatocytes (PHH); conditions: for Assigned classification CYP3A4: PHH
[3] = system: CYP1A2; assay: CYP1A2 enzyme induction assay in cryopreserved primary human hepatocytes (PHH); type: in vitro ADME; conditions: for Prediction in vivo inducer: Cmax/F2 >0.5 criterion; for Assigned classification CYP1A2: PHH;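 on Assigned classification CYP1A2: code 1 means positive inducer and 0 means non-inducer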
[4] = system: CYP; conditions: CYP isoforms induced; ref Abadie et al. (2009), Richert et al. (2010), Preissner et al. (2010), Hoffmann et al. (2014); cited from earlier work
[5] = system: CYP1A2; assay: CYP1A2 enzyme induction assay in cryopreserved HepaRG cells (phenacetin probe, LC/MS); type: in vitro ADME, human; conditions: for Prediction in vivo inducer: Cmax/F2 >0.5 criterion; for Assigned classification CYP1A2: HepaRG
[6] = system: CYP2B6; assay: CYP2B6 enzyme induction assay in cryopreserved HepaRG cells (bupropion probe, LC/MS); type: in vitro ADME, human; conditions: for Prediction in vivo inducer: Cmax/F2 >0.5 criterion; for Assigned classification CYP2B6: HepaRG
[7] = system: CYP2B6; assay: CYP2B6 enzyme induction assay in cryopreserved primary human hepatocytes (PHH); type: in vitro ADME; conditions: for Assigned classification CYP2B6: PHH;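 on Assigned classification CYP2B6: code 1 means positive inducer and 0 means non-inducer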
[8] = system: CYP3A4; assay: CYP3A4 enzyme induction assay in cryopreserved HepaRG cells (midazolam probe, LC/MS); type: in vitro ADME, human; conditions: for Assigned classification CYP3A4: HepaRG
[9] = system: CYP3A4; conditions: cited from earlier work

COc1ccccc1Oc1c(NS(=O)(=O)c2ccc(C(C)(C)C)cc2)nc(-c2ncccn2)nc1OCCO [Bosentan hydrate]
Cmax ([1]; human in vivo plasma concentration, normal dose): 5.8 µM
Cmax ([1]; human in vivo, normal dose (Table 10)): 5.8 µM
F2 ([2]; CYP3A4, PHH): 0.65 to 1.95 µM
Induction in vitro ([2]; CYP3A4, PHH): Yes
Prediction in vivo inducer ([2]; CYP3A4, PHH): Yes
Assigned classification CYP3A4 ([2]; Lab 1, batch 0 6 A): 1
Assigned classification CYP3A4 ([2]; Lab 1, batch 4 0 8): 1
Assigned classification CYP3A4 ([2]; Lab 1, batch 8 0 8): 1
Assigned classification CYP3A4 ([2]; Lab 2, batch 0 6 A): 1
Assigned classification CYP3A4 ([2]; Lab 2, batch 4 0 8): 1
Assigned classification CYP3A4 ([2]; Lab 2, batch 8 0 8): 1
Assigned classification CYP3A4 ([2]; Lab 3, batch 0 6 A): 1
Assigned classification CYP3A4 ([2]; Lab 3, batch 4 0 8): 1
Assigned classification CYP3A4 ([2]; Lab 3, batch 8 0 8): 1
Prediction in vivo inducer ([3]; CYP1A2, PHH, listed as Bosentan): No
Prediction in vivo inducer ([3]; CYP1A2, PHH, listed as bosentan): non-inducers
Induction in vitro ([3]; CYP1A2, PHH, positive in one donor in each of the three laboratories): No
Assigned classification CYP1A2 ([3]; Lab 1, batch 0 6 A): 0
Assigned classification CYP1A2 ([3]; Lab 1, batch 4 0 8): 0
Assigned classification CYP1A2 ([3]; Lab 1, batch 8 0 8): 0
Assigned classification CYP1A2 ([3]; Lab 2, batch 0 6 A): 0
Assigned classification CYP1A2 ([3]; Lab 2, batch 4 0 8): 0
Assigned classification CYP1A2 ([3]; Lab 2, batch 8 0 8): 1
Assigned classification CYP1A2 ([3]; Lab 3, batch 0 6 A): 1
Assigned classification CYP1A2 ([3]; Lab 3, batch 4 0 8): 0
Assigned classification CYP1A2 ([3]; Lab 3, batch 8 0 8): 0
CYP induction in vitro (human hepatocytes) [4]: CYP3A4
Prediction in vivo inducer ([5]; CYP1A2, HepaRG cells, listed as Bosentan): Yes
Prediction in vivo inducer ([5]; CYP1A2, HepaRG cells, listed as bosentan): CYP1A2 induction would be expected
F2 ([5]; CYP1A2, HepaRG cells, in vitro concentration producing 2-fold induction): 2.60 to 7.80 µM
Induction in vitro ([5]; CYP1A2, HepaRG cells, positive in one batch in each of the three laboratories): Yes
Assigned classification CYP1A2 ([5]; Lab 1, batch 20): 1
Assigned classification CYP1A2 ([5]; Lab 1, batch 35): 1
Assigned classification CYP1A2 ([5]; Lab 1, batch 36): 1
Assigned classification CYP1A2 ([5]; Lab 2, batch 20): 1
Assigned classification CYP1A2 ([5]; Lab 2, batch 35): 1
Assigned classification CYP1A2 ([5]; Lab 2, batch 36): 1
Assigned classification CYP1A2 ([5]; Lab 3, batch 20): 1
Assigned classification CYP1A2 ([5]; Lab 3, batch 35): 1
Assigned classification CYP1A2 ([5]; Lab 3, batch 36): 0
Prediction in vivo inducer ([6]; CYP2B6, HepaRG cells, listed as Bosentan): Yes
Prediction in vivo inducer ([6]; CYP2B6, HepaRG cells, listed as bosentan): predicted as positive inducers
F2 ([6]; CYP2B6, HepaRG cells, in vitro concentration producing 2-fold induction): 2.60 to 7.80 µM
Induction in vitro ([6]; CYP2B6, HepaRG cells, positive in one batch in each of the three laboratories): Yes
Assigned classification CYP2B6 ([6]; Lab 1, batch 20): 1
Assigned classification CYP2B6 ([6]; Lab 1, batch 35): 1
Assigned classification CYP2B6 ([6]; Lab 1, batch 36): 0
Assigned classification CYP2B6 ([6]; Lab 2, batch 20): 1
Assigned classification CYP2B6 ([6]; Lab 2, batch 35): 0
Assigned classification CYP2B6 ([6]; Lab 2, batch 36): 0
Assigned classification CYP2B6 ([6]; Lab 3, batch 20): 0
Assigned classification CYP2B6 ([6]; Lab 3, batch 35): 1
Assigned classification CYP2B6 ([6]; Lab 3, batch 36): 0
F2 ([7]; CYP2B6, PHH): 5.85 µM
Induction in vitro ([7]; CYP2B6, PHH): Yes
Prediction in vivo inducer ([7]; CYP2B6, PHH): Yes
Assigned classification CYP2B6 ([7]; Lab 1, batch 0 6 A): 1
Assigned classification CYP2B6 ([7]; Lab 1, batch 4 0 8): 1
Assigned classification CYP2B6 ([7]; Lab 1, batch 8 0 8): 1
Assigned classification CYP2B6 ([7]; Lab 2, batch 0 6 A): 1
Assigned classification CYP2B6 ([7]; Lab 2, batch 4 0 8): 0
Assigned classification CYP2B6 ([7]; Lab 2, batch 8 0 8): 1
Assigned classification CYP2B6 ([7]; Lab 3, batch 0 6 A): 1
Assigned classification CYP2B6 ([7]; Lab 3, batch 4 0 8): 1
Assigned classification CYP2B6 ([7]; Lab 3, batch 8 0 8): 1
F2 ([8]; CYP3A4, HepaRG cells): 0.29 µM
Induction in vitro ([8]; CYP3A4, HepaRG cells): Yes
Prediction in vivo inducer ([8]; CYP3A4, HepaRG cells): Yes
Assigned classification CYP3A4 ([8]; Lab 1, batch 20): 1
Assigned classification CYP3A4 ([8]; Lab 1, batch 35): 1
Assigned classification CYP3A4 ([8]; Lab 1, batch 36): 1
Assigned classification CYP3A4 ([8]; Lab 2, batch 20): 1
Assigned classification CYP3A4 ([8]; Lab 2, batch 35): 1
Assigned classification CYP3A4 ([8]; Lab 2, batch 36): 1
Assigned classification CYP3A4 ([8]; Lab 3, batch 20): 1
Assigned classification CYP3A4 ([8]; Lab 3, batch 35): 1
Assigned classification CYP3A4 ([8]; Lab 3, batch 36): 1
Induction in vivo ([9]; CYP3A4, human in vivo reference classification (Table 11)): Yes
CYP induction in vivo literature reference: CYP3A4 ([9]; human in vivo, CYP named without remark = induced, ref references in the cell, Washington University database, Hoffmann et al. (2014), Pelkonen et al. (2008), Hukkanen et al. (2012)): CYP1A2 NO studies CYP2B6 NO studies CYP 3A4 ([Weber et al., 1999a], [Weber et al., 1999b]; [van Giersbergen et al., 2002a], [van Giersbergen et al., 2002b]; Dingemanse and van Giersbergen, 2004)

Source: publication PMC6718736, “Validation of in vitro methods for human cytochrome P450 enzyme induction: Outcome of a multi-laboratory study” (Toxicology in Vitro, 2019)
